According to patent publication US9802901B2, “Antibacterial 2H-indazole derivatives” (priority 2013, dated 2017):
≈ marks a conversion by molar mass, not a printed value.

Legend:
Experiment in all cases: Bacterial growth minimal inhibitory concentration (broth microdilution, CLSI M7-A7)
E. coli ATCC25922 = assay type: cell-based, Escherichia coli; settings: cation-adjusted Mueller-Hinton Broth, microdilution, quinolone-sensitive strain; for MIC: Escherichia coli, ATCC25922, read-out: MIC for E. coli ATCC25922
Protocol: (§1) Minimal Inhibitory Concentrations (MICs; mg/L) were determined in cation-adjusted Mueller-Hinton Broth by a microdilution method following the description given in “Methods for Dilution Antimicrobial Susceptibility Tests for Bacteria that Grow Aerobically”, Approved standard, 7th ed., Clinical and Laboratory Standards Institute (CLSI) Document M7-A7, Wayne, Pa., USA (2006).
(§2) All Example compounds, except the compound of Example 62, were tested against several Gram-positive and Gram-negative bacteria. […] K. pneumoniae A-651 and Acinetobacter baumannii T6474 are multiply-resistant strains (in particular quinolone-resistant), while E. coli ATCC25922 and P. aeruginosa ATCC27853 are quinolone-sensitive strains.

P. aeruginosa ATCC27853 = assay type: cell-based, Pseudomonas aeruginosa; settings: cation-adjusted Mueller-Hinton Broth, microdilution, quinolone-sensitive strain; for MIC: Pseudomonas aeruginosa, ATCC27853, read-out: MIC for P. aeruginosa ATCC27853
Protocol: as §1, §2

[1] = test system: Acinetobacter baumannii T6474; assay type: cell-based; settings: cation-adjusted Mueller-Hinton Broth, microdilution, multiply-resistant (quinolone-resistant) strain; for MIC: Acinetobacter baumannii, T6474, read-out: MIC for A. Baumannii T6474
Protocol: as §1, §2

K. pneumoniae A-651 = assay type: cell-based, Klebsiella pneumoniae; settings: cation-adjusted Mueller-Hinton Broth, microdilution, multiply-resistant (quinolone-resistant) strain; for MIC: Klebsiella pneumoniae, A651, read-out: MIC for K. Pneumoniae A-651
Protocol: as §1, §2

Structure (SMILES)	MIC (E. coli ATCC25922)	MIC (P. aeruginosa ATCC27853)	MIC [1]	MIC (K. pneumoniae A-651)	MIC for E. coli ATCC25922 (E. coli ATCC25922)	MIC for P. aeruginosa ATCC27853 (P. aeruginosa ATCC27853)	MIC for A. Baumannii T6474 [1]	MIC for K. Pneumoniae A-651 (K. pneumoniae A-651)
C[C@@](CCn1cc2cc(C#CC#CC3(O)CCOCC3)ccc2n1)(C(=O)NO)S(C)(=O)=O [Example 15, (R)—N-hydroxy-4-(5-((4-hydroxytetrahydro-2H-pyran-4-yl)buta-1,3-diyn-1-yl)-2H-indazol-2-yl)-2-methyl-2-(methylsulfonyl)butanamide]	2 µg/mL (≈ 4.35 µM)	2 µg/mL (≈ 4.35 µM)	> 32 µg/mL	2 µg/mL (≈ 4.35 µM)	–	–	–	–
C[C@@](CCn1cc2cc(C#Cc3ccc(C4(CO)CC4)cc3)ccc2n1)(C(=O)NO)S(C)(=O)=O [Example 16, (R)—N-hydroxy-4-(5-((4-(1-(hydroxymethyl)cyclopropyl)phenyl)ethynyl)-2H-indazol-2-yl)-2-methyl-2-(methylsulfonyl)butanamide]	0.125 µg/mL (≈ 0.26 µM)	1 µg/mL (≈ 2.08 µM)	0.5 µg/mL (≈ 1.04 µM)	0.125 µg/mL (≈ 0.26 µM)	–	–	–	–
C[C@@](CCn1cc2cc(/C=C/c3ccccc3)ccc2n1)(C(=O)NO)S(C)(=O)=O [Example 17, (R)—N-hydroxy-2-methylsulfonyl-2-methyl-4-[5-((E)-styryl)-indazol-2-yl]-butanamide]	0.063 µg/mL (≈ 0.152 µM)	16 µg/mL (≈ 38.7 µM)	1 µg/mL (≈ 2.42 µM)	0.063 µg/mL (≈ 0.152 µM)	–	–	–	–
C[C@@](CCn1cc2cc(C#Cc3ccc(C4(O)COC4)cc3)ccc2n1)(C(=O)NO)S(C)(=O)=O [Example 20, (R)—N-hydroxy-4-{5-[4-(3-hydroxy-oxetan-3-yl)-phenylethynyl]-indazol-2-yl}-2-methylsulfonyl-2-methyl-butanamide]	0.25 µg/mL (≈ 0.517 µM)	0.5 µg/mL (≈ 1.03 µM)	0.5 µg/mL (≈ 1.03 µM)	0.125 µg/mL (≈ 0.259 µM)	–	–	–	–
C[C@@](CCn1cc2cc(C#Cc3ccc(CO)cc3)ccc2n1)(C(=O)NO)S(C)(=O)=O [Example 21, (R)—N-hydroxy-4-(5-((4-(hydroxymethyl)phenyl)ethynyl)-2H-indazol-2-yl)-2-methyl-2-(methylsulfonyl)butanamide]	0.125 µg/mL (≈ 0.283 µM)	1 µg/mL (≈ 2.26 µM)	0.5 µg/mL (≈ 1.13 µM)	0.25 µg/mL (≈ 0.566 µM)	–	–	–	–
C[C@@](CCn1cc2c(F)c(C#Cc3ccc(CO)cc3)ccc2n1)(C(=O)NO)S(C)(=O)=O.O=C(O)C(F)(F)F [Example 23, (R)-4-[4-fluoro-5-(4-hydroxymethyl-phenylethynyl)-indazol-2-yl]-N-hydroxy-2-methylsulfonyl-2-methyl-butanamide trifluoro-acetic acid salt]	0.25 µg/mL	4 µg/mL	1 µg/mL	0.25 µg/mL	–	–	–	–
C[C@@](CCn1cc2cc(C#Cc3ccc([C@@H](O)CO)cc3)ccc2n1)(C(=O)NO)S(C)(=O)=O [Example 26, (2R)-4-{5-[4-((R)-1,2-dihydroxy-ethyl)-phenylethynyl]-indazol-2-yl}-N-hydroxy-2-methylsulfonyl-2-methyl-butanamide]	0.5 µg/mL (≈ 1.06 µM)	1 µg/mL (≈ 2.12 µM)	8 µg/mL (≈ 17 µM)	0.5 µg/mL (≈ 1.06 µM)	–	–	–	–
CC(C)(O)c1ccc(C#Cc2ccc3nn(CC[C@](C)(C(=O)NO)S(C)(=O)=O)cc3c2)cc1 [Example 27, (R)—N-hydroxy-4-(5-((4-(2-hydroxypropan-2-yl)phenyl)ethynyl)-2H-indazol-2-yl)-2-methyl-2-(methylsulfonyl)butanamide]	0.063 µg/mL (≈ 0.134 µM)	0.5 µg/mL (≈ 1.06 µM)	0.25 µg/mL (≈ 0.532 µM)	0.125 µg/mL (≈ 0.266 µM)	–	–	–	–
C[C@@](CCn1cc2c(F)c(C#Cc3ccc(C4(O)COC4)cc3)ccc2n1)(C(=O)NO)S(C)(=O)=O [Example 29, (R)-4-{4-fluoro-5-[4-(3-hydroxy-oxetan-3-yl)-phenylethynyl]-indazol-2-yl}-N-hydroxy-2-methylsulfonyl-2-methyl-butanamide]	0.25 µg/mL (≈ 0.498 µM)	1 µg/mL (≈ 1.99 µM)	0.5 µg/mL (≈ 0.997 µM)	0.25 µg/mL (≈ 0.498 µM)	–	–	–	–
CC(C)(O)C#CC#Cc1ccc2nn(CC[C@](C)(C(=O)NO)S(C)(=O)=O)cc2c1 [Example 32, (R)—N-hydroxy-4-[5-(5-hydroxy-5-methyl-hexa-1,3-diynyl)-indazol-2-yl]-2-methylsulfonyl-2-methyl-butanamide]	0.5 µg/mL (≈ 1.2 µM)	1 µg/mL (≈ 2.4 µM)	32 µg/mL (≈ 76.6 µM)	0.5 µg/mL (≈ 1.2 µM)	–	–	–	–
C[C@H](O)c1ccc(C#Cc2ccc3nn(CC[C@](C)(C(=O)NO)S(C)(=O)=O)cc3c2)cc1 [Example 34]	–	–	–	–	0.063 µg/mL	0.5 µg/mL	1 µg/mL	0.125 µg/mL
C[C@@](CCn1cc2cc(C#CC#C[C@@H]3C[C@H]3CO)ccc2n1)(C(=O)NO)S(C)(=O)=O.O=CO [Example 37]	–	–	–	–	0.063 µg/mL	0.25 µg/mL	2 µg/mL	0.063 µg/mL
C[C@@](CCn1cc2c(F)c(C#CC#CC3(O)COC3)ccc2n1)(C(=O)NO)S(C)(=O)=O [Example 38, (R)-4-{4-fluoro-5-[4-(3-hydroxy-oxetan-3-yl)-buta-1,3-diynyl]-indazol-2-yl}-N-hydroxy-2-methylsulfonyl-2-methyl-butanamide]	0.5 µg/mL (≈ 1.11 µM)	1 µg/mL (≈ 2.22 µM)	> 32 µg/mL	1 µg/mL (≈ 2.22 µM)	–	–	–	–
C[C@@](CCn1cc2cc(C#Cc3ccc(CO)cc3F)ccc2n1)(C(=O)NO)S(C)(=O)=O [Example 39, (R)-4-[5-(2-fluoro-4-hydroxymethyl-phenylethynyl)-indazol-2-yl]-N-hydroxy-2-methylsulfonyl-2-methyl-butanamide]	0.125 µg/mL (≈ 0.272 µM)	1 µg/mL (≈ 2.18 µM)	0.25 µg/mL (≈ 0.544 µM)	0.125 µg/mL (≈ 0.272 µM)	–	–	–	–

Second part, led by results:

MIC (E. coli ATCC25922)	MIC (P. aeruginosa ATCC27853)	MIC [1]	MIC (K. pneumoniae A-651)	Structure (SMILES)	MIC for E. coli ATCC25922 (E. coli ATCC25922)	MIC for P. aeruginosa ATCC27853 (P. aeruginosa ATCC27853)	MIC for A. Baumannii T6474 [1]	MIC for K. Pneumoniae A-651 (K. pneumoniae A-651)
0.063 µg/mL (≈ 0.148 µM)	2 µg/mL (≈ 4.69 µM)	0.5 µg/mL (≈ 1.17 µM)	0.125 µg/mL (≈ 0.293 µM)	C[C@@](CCn1cc2cc(C#Cc3ccc(N)cc3)ccc2n1)(C(=O)NO)S(C)(=O)=O [Example 19, (R)-4-[5-(4-amino-phenylethynyl)-indazol-2-yl]-N-hydroxy-2-methylsulfonyl-2-methyl-butanamide]	–	–	–	–
0.125 µg/mL (≈ 0.272 µM)	2 µg/mL (≈ 4.35 µM)	1 µg/mL (≈ 2.18 µM)	0.5 µg/mL (≈ 1.09 µM)	C[C@@](CCn1cc2cc(C#Cc3ccc(CO)c(F)c3)ccc2n1)(C(=O)NO)S(C)(=O)=O [Example 22, (R)-4-[5-(3-fluoro-4-hydroxymethyl-phenylethynyl)-indazol-2-yl]-N-hydroxy-2-methylsulfonyl-2-methyl-butanamide]	–	–	–	–
0.063 µg/mL (≈ 0.138 µM)	0.5 µg/mL (≈ 1.1 µM)	0.5 µg/mL (≈ 1.1 µM)	0.063 µg/mL (≈ 0.138 µM)	C[C@@](CCn1cc2cc(C#Cc3ccc(CCO)cc3)ccc2n1)(C(=O)NO)S(C)(=O)=O [Example 25, (R)—N-hydroxy-4-{5-[4-(2-hydroxy-ethyl)-phenylethynyl]-indazol-2-yl}-2-methylsulfonyl-2-methyl-butanamide]	–	–	–	–
0.5 µg/mL (≈ 1.16 µM)	1 µg/mL (≈ 2.32 µM)	> 32 µg/mL	0.5 µg/mL (≈ 1.16 µM)	C[C@@](CCn1cc2cc(C#CC#CC3(O)COC3)ccc2n1)(C(=O)NO)S(C)(=O)=O [Example 28, (R)—N-hydroxy-4-(5-((3-hydroxyoxetan-3-yl)buta-1,3-diyn-1-yl)-2H-indazol-2-yl)-2-methyl-2-(methylsulfonyl)butanamide]	–	–	–	–
1 µg/mL	4 µg/mL	2 µg/mL	2 µg/mL	CN(C)C1(c2ccc(C#Cc3ccc4nn(CC[C@](C)(C(=O)NO)S(C)(=O)=O)cc4c3)cc2)COC1.Cc1ccc(S(=O)(=O)O)cc1 [Example 30, (R)-4-{5-[4-(3-dimethylamino-oxetan-3-yl)-phenylethynyl]-indazol-2-yl}-N-hydroxy-2-methylsulfonyl-2-methyl-butanamide toluene-4-sulfonic acid salt]	–	–	–	–
1 µg/mL (≈ 2.22 µM)	2 µg/mL (≈ 4.45 µM)	> 32 µg/mL	1 µg/mL (≈ 2.22 µM)	C[C@@](CCn1cc2cc(C#CC#CC3(O)COC3)c(F)cc2n1)(C(=O)NO)S(C)(=O)=O [Example 31, (R)-4-{6-fluoro-5-[4-(3-hydroxy-oxetan-3-yl)-buta-1,3-diynyl]-indazol-2-yl}-N-hydroxy-2-methylsulfonyl-2-methyl-butanamide]	–	–	–	–
0.063 µg/mL (≈ 0.138 µM)	0.5 µg/mL (≈ 1.1 µM)	2 µg/mL (≈ 4.39 µM)	0.125 µg/mL (≈ 0.274 µM)	C[C@@H](O)c1ccc(C#Cc2ccc3nn(CC[C@](C)(C(=O)NO)S(C)(=O)=O)cc3c2)cc1 [Example 33, (R)—N-hydroxy-4-(5-((4-((R)-1-hydroxyethyl)phenyl)ethynyl)-2H-indazol-2-yl)-2-methyl-2-(methylsulfonyl)butanamide]	–	–	–	–
0.125 µg/mL (≈ 0.255 µM)	4 µg/mL (≈ 8.17 µM)	0.25 µg/mL (≈ 0.511 µM)	0.5 µg/mL (≈ 1.02 µM)	C[C@@](CCn1cc2cc(-c3ccc(OC(F)(F)F)cc3F)ccc2n1)(C(=O)NO)S(C)(=O)=O [Example 35, (R)-4-[5-(2-fluoro-4-trifluoromethoxy-phenyl)-indazol-2-yl]-N-hydroxy-2-methylsulfonyl-2-methyl-butanamide]	–	–	–	–
0.063 µg/mL	0.25 µg/mL	2 µg/mL	0.125 µg/mL	C[C@@](CCn1cc2cc(C#CC#C[C@H]3C[C@@H]3CO)ccc2n1)(C(=O)NO)S(C)(=O)=O.O=CO [Example 36, (R)—N-hydroxy-4-(5-(((1S,2S)-2-(hydroxymethyl)cyclopropyl)buta-1,3-diyn-1-yl)-2H-indazol-2-yl)-2-methyl-2-(methylsulfonyl)butanamide formate]	–	–	–	–
